From PubChem BioAssay AID1963848 (Molecular Pharmacology Branch, DTP, NCI, 2024)

Test system: 379773-124-R-J2-PDC spheroid viability
Assay: Anticancer human tumor 379773-124-R-J2-PDC patient-derived endometrial carcinoma cell line growth inhibition [POLQ]
Details: spheroids with HUVEC and MSC; for IC50: curve of first compound; for viability, T/C: stronger effect = lower value
In short: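 PDC + HUVEC + MSC complex spheroids; POLQ inhibitors ± partner drugs; top conc. at/near clinical Cmax, else 10 microM (SN-38 1 microM), half-log dilutions; 37 degrees C, 5% CO2.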

[1] = second compound 0.0316 µM, first compound 0.0316 µM
[2] = second compound 0.0316 µM, first compound 0.1 µM
[3] = second compound 0.0316 µM, first compound 0.316 µM
[4] = second compound 0.0316 µM, first compound 1 µM
[5] = second compound 0.0316 µM, first compound 3.16 µM
[6] = second compound 0.0316 µM, first compound 10 µM
[7] = second compound 0.1 µM, first compound 0.0316 µM
[8] = second compound 0.1 µM, first compound 0.1 µM
[9] = second compound 0.1 µM, first compound 0.316 µM
[10] = second compound 0.1 µM, first compound 1 µM
[11] = second compound 0.1 µM, first compound 3.16 µM
[12] = second compound 0.1 µM, first compound 10 µM
[13] = second compound 0.316 µM, first compound 0.0316 µM
[14] = second compound 0.316 µM, first compound 0.1 µM
[15] = second compound 0.316 µM, first compound 0.316 µM
[16] = second compound 0.316 µM, first compound 1 µM
[17] = second compound 0.316 µM, first compound 3.16 µM
[18] = second compound 0.316 µM, first compound 10 µM
[19] = second compound 1 µM, first compound 0.0316 µM
[20] = second compound 1 µM, first compound 0.1 µM
[21] = second compound 1 µM, first compound 0.316 µM
[22] = second compound 1 µM, first compound 1 µM
[23] = second compound 1 µM, first compound 3.16 µM
[24] = second compound 1 µM, first compound 10 µM
[25] = second compound 3.16 µM, first compound 0.0316 µM
[26] = second compound 3.16 µM, first compound 0.1 µM
[27] = second compound 3.16 µM, first compound 0.316 µM
[28] = second compound 3.16 µM, first compound 1 µM
[29] = second compound 3.16 µM, first compound 3.16 µM
[30] = second compound 3.16 µM, first compound 10 µM
[31] = second compound 10 µM, first compound 0.0316 µM
[32] = second compound 10 µM, first compound 0.1 µM
[33] = second compound 10 µM, first compound 0.316 µM
[34] = second compound 10 µM, first compound 1 µM
[35] = second compound 10 µM, first compound 3.16 µM
[36] = second compound 10 µM, first compound 10 µM
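Note: spheroids exposed to drugs for seven days before readout.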
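Throughout, for viability, T/C: percent viability relative to DMSO vehicle control taken as 100%.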

Structure (SMILES): COc1cc(C2c3cc4c(cc3C(OC3OC5COC(C)OC5C(O)C3O)C3COC(=O)C23)OCO4)cc(OC)c1O (stereo unspecified) + COC1C(OC(N)=O)C(O)C(Oc2ccc3c(O)c(NC(=O)c4ccc(O)c(CC=C(C)C)c4)c(=O)oc3c2C)OC1(C)C
- IC50 (second compound 0.0316 µM): 1.19 µM
- IC50 (second compound 0.1 µM): 1.51 µM
- IC50 (second compound 0.316 µM): 1.49 µM
- IC50 (second compound 1 µM): 1.37 µM
- IC50 (second compound 3.16 µM): 1.37 µM
- IC50 (second compound 10 µM): 1.19 µM
- viability, T/C [1]: 97.5%
- viability, T/C [2]: 82.6%
- viability, T/C [3]: 86.2%
- viability, T/C [4]: 56.9%
- viability, T/C [5]: 13.8%
- viability, T/C [6]: 9.47%
- viability, T/C [7]: 95.5%
- viability, T/C [8]: 80.6%
- viability, T/C [9]: 80%
- viability, T/C [10]: 70.5%
- viability, T/C [11]: 13%
- viability, T/C [12]: 10.2%
- viability, T/C [13]: 95.8%
- viability, T/C [14]: 80.9%
- viability, T/C [15]: 81.3%
- viability, T/C [16]: 70.5%
- viability, T/C [17]: 11.1%
- viability, T/C [18]: 9.75%
- viability, T/C [19]: 93.1%
- viability, T/C [20]: 94.6%
- viability, T/C [21]: 81.6%
- viability, T/C [22]: 64.8%
- viability, T/C [23]: 12.2%
- viability, T/C [24]: 9.19%
- viability, T/C [25]: 76.1%
- viability, T/C [26]: 84.7%
- viability, T/C [27]: 83%
- viability, T/C [28]: 64%
- viability, T/C [29]: 12.9%
- viability, T/C [30]: 8.54%
- viability, T/C [31]: 85.2%
- viability, T/C [32]: 84.4%
- viability, T/C [33]: 89.3%
- viability, T/C [34]: 56.3%
- viability, T/C [35]: 14.1%
- viability, T/C [36]: 9.29%

Structure (SMILES): C=CCn1c(=O)c2cnc(Nc3ccc(N4CCN(C)CC4)cc3)nc2n1-c1cccc(C(C)(C)O)n1 + Cc1cccc(N(C)C(=O)C2C(O)CCN2c2nc(C)cc(C(F)(F)F)c2C#N)c1
- IC50 (second compound 0.0316 µM): 0.457 µM
- IC50 (second compound 0.1 µM): 0.441 µM
- IC50 (second compound 0.316 µM): 0.411 µM
- IC50 (second compound 1 µM): 0.416 µM
- IC50 (second compound 3.16 µM): 0.443 µM
- IC50 (second compound 10 µM): 0.406 µM
- viability, T/C (second compound 0.0316 µM, first compound 0.00316 µM): 88.5%
- viability, T/C (second compound 0.0316 µM, first compound 0.01 µM): 86%
- viability, T/C [1]: 85.2%
- viability, T/C [2]: 98%
- viability, T/C [3]: 72.2%
- viability, T/C [4]: 3.05%
- viability, T/C (second compound 0.1 µM, first compound 0.00316 µM): 91.4%
- viability, T/C (second compound 0.1 µM, first compound 0.01 µM): 98.3%
- viability, T/C [7]: 93.1%
- viability, T/C [8]: 98.1%
- viability, T/C [9]: 68.8%
- viability, T/C [10]: 3.55%
- viability, T/C (second compound 0.316 µM, first compound 0.00316 µM): 100%
- viability, T/C (second compound 0.316 µM, first compound 0.01 µM): 91.5%
- viability, T/C [13]: 96.4%
- viability, T/C [14]: 90.8%
- viability, T/C [15]: 63.6%
- viability, T/C [16]: 4%
- viability, T/C (second compound 1 µM, first compound 0.00316 µM): 86.5%
- viability, T/C (second compound 1 µM, first compound 0.01 µM): 96.7%
- viability, T/C [19]: 95.1%
- viability, T/C [20]: 95.3%
- viability, T/C [21]: 64.9%
- viability, T/C [22]: 2.86%
- viability, T/C (second compound 3.16 µM, first compound 0.00316 µM): 98.2%
- viability, T/C (second compound 3.16 µM, first compound 0.01 µM): 90.2%
- viability, T/C [25]: 88.2%
- viability, T/C [26]: 94%
- viability, T/C [27]: 69.5%
- viability, T/C [28]: 2.86%
- viability, T/C (second compound 10 µM, first compound 0.00316 µM): 87.5%
- viability, T/C (second compound 10 µM, first compound 0.01 µM): 86.1%
- viability, T/C [31]: 85.9%
- viability, T/C [32]: 89.5%
- viability, T/C [33]: 63%
- viability, T/C [34]: 3.05%

Structure (SMILES): CC(C)n1c(=O)n(C)c2cnc3cc(F)c(-c4ccc(OCCCN5CCCCC5)nc4)cc3c21 + Cc1cccc(N(C)C(=O)C2C(O)CCN2c2nc(C)cc(C(F)(F)F)c2C#N)c1
- IC50 (second compound 0.0316 µM): > 10 µM
- IC50 (second compound 0.1 µM): > 10 µM
- IC50 (second compound 0.316 µM): > 10 µM
- IC50 (second compound 1 µM): > 10 µM
- IC50 (second compound 3.16 µM): > 10 µM
- IC50 (second compound 10 µM): > 10 µM
- viability, T/C [1]: 89.1%
- viability, T/C [2]: 76.9%
- viability, T/C [3]: 83.4%
- viability, T/C [4]: 77.9%
- viability, T/C [5]: 83%
- viability, T/C [6]: 59.9%
- viability, T/C [7]: 88.8%
- viability, T/C [8]: 77.1%
- viability, T/C [9]: 77.2%
- viability, T/C [10]: 79.9%
- viability, T/C [11]: 98.7%
- viability, T/C [12]: 65.8%
- viability, T/C [13]: 80.3%
- viability, T/C [14]: 89.8%
- viability, T/C [15]: 75.9%
- viability, T/C [16]: 73.6%
- viability, T/C [17]: 79.7%
- viability, T/C [18]: 65.1%
- viability, T/C [19]: 84%
- viability, T/C [20]: 75.1%
- viability, T/C [21]: 80.1%
- viability, T/C [22]: 73.1%
- viability, T/C [23]: 79.1%
- viability, T/C [24]: 69.8%
- viability, T/C [25]: 73.7%
- viability, T/C [26]: 75.3%
- viability, T/C [27]: 75.3%
- viability, T/C [28]: 64.4%
- viability, T/C [29]: 72%
- viability, T/C [30]: 72.1%
- viability, T/C [31]: 78.7%
- viability, T/C [32]: 79.5%
- viability, T/C [33]: 89.2%
- viability, T/C [34]: 73.9%
- viability, T/C [35]: 70.3%
- viability, T/C [36]: 56.1%
